In US7052850B2, “Isolated human EDG-4 receptor” (priority 1997, dated 2006):
Entries after “also recorded” stand apart in the source; their conditions may differ.

Legend:
EDG-6 [1] = target: T1, EDG-6 (Homo sapiens, UniProt Q9HBW0); assay: SRE reporter in 293-EBNA cells, EDG-6; assay type: cell-based; details: 10 μM LPA
T1 construct: expressed in transfected cells; host or cells: 293-EBNA
Text: (§1) LPA, like S1P, is abundant in serum, but not plasma. Moreover, LPA is produced as a consequence of phospholipase A2 with or without the contribution of phospholipase D (depending on the phospholipid substrate). […] To date we have identified three subtypes of edg receptors that respond to LPA as an agonist. These are EDG-2, […] (referred to also as LPA1, LPA2 and LPA3, respectively (Chun, J, Contos, JJA and Munroe, DG. 1998. A growing family of receptor genes for lysophophatidid acid (LPA) and other lyso-phospholipids. Cell Biochem Biophys (in press)). The EDG-5 receptor is set out in co-pending U.S. application Ser. No. 08/997,803 to MUNROE et al., incorporated herein to reference and the amino acid sequence and cDNA sequence for the EDG-6 receptor is set out in FIGS. 21 and 22, respectively. To determine whether these receptors might mediate inflammatory responses, each was cotransfected separately with SRE, NF-κB or AP-1 reporter genes. […] This transcription factor, like NF-κB has been implicated in inflammatory and neoplastic signal transduction, though the gene targets of its action are largely distinct from those of NF-κB (Adcock I M. 1997. Transcription factors as activators of gene transcription; AP-1 and NF-κB. Monaldi Arch Chest Dis 52:178–186. Review). […]

EDG-6 [2] = target: T1, EDG-6; assay: NF-κB reporter in 293-EBNA cells, EDG-6; assay type: cell-based; details: 10 μM LPA overnight
Text: as §1

293-EBNA cells = assay: IL-8 production in 293-EBNA cells; assay type: cell-based; details: untransfected
[3] = system: pcDNA3-transfected 293-EBNA cells; assay: AP-1 reporter in 293-EBNA cells, empty vector pcDNA3; assay type: cell-based; details: 10 μM LPA
Text: as §1

EDG-2 = target: T2, EDG-2 (Homo sapiens, UniProt Q92633); assay: NF-κB reporter in 293-EBNA cells, EDG-2; assay type: cell-based; details: 10 μM LPA overnight
T2 construct: expressed in transfected cells; host or cells: 293-EBNA
Text: as §1

HL-60 cells = assay: IL-8 response in HL-60 cells; assay type: cell-based, human; details: 1, 6 or 24 hours, S1P or LPA up to 3 μM, TNF-α 10 ng/ml
human EDG-4 [4] = target: T3, human EDG-4 (Homo sapiens, UniProt O95136, F273L/I205V); assay: Relative potency and efficacy of agonists, luciferase (SRE) reporter in 293-EBNA cells expressing recombinant human EDG-4; assay type: cell-based; details: for Rank (EMax): rank of efficacy
T3 construct: a 1059 bp open reading frame (excluding the stop codon) corresponding to the complete human edg-4 coding region; expressed in transfected cells; host or cells: 293-EBNA
Experimental: Transfection of EDG-4, expression, pretreatment and treatment of 293-EBNA cells expressing recombinant human EDG-4 was carried out essentially as described in “Example 11. […] Results were tabulated in Microsoft Excel, and analyzed with GraphPad Prism sotfware. […] The luciferase response was expressed as fold response, after subtracting any endogenous response in pcDNA3-transfected cells at a given concentration of compound.

human EDG-3 [5] = target: human EDG-3 (Homo sapiens, UniProt Q99500); assay: SRE luciferase reporter in 293-EBNA cells, human EDG-3; assay type: cell-based; details: Assay 3; pancreas clone pC3-E3HP2; 3 μM
Experimental: (§2) The protocol described in Example 11 for Assay 1 was allowed except for the following changes: • 1) 100 mm plates of 293-EBNA ith a confluency of ˜80% were used for transfection, • 2) SRE Cotransfection: 0.5 μg of 2XSREtk-p4Luc-zeo reporter DNA and 3.5 μg pcDNA3, EDG-1, EDG-3 pC3-hE3P2, different from the clone used in Assay 2 of Example 11) or the newly cloned human EDG-4 (pC3-hedg4#36); NF-κB Cotransfection: 2 μg 6XNFκBtk-p4LUc-zeo reporter DNA and 2.0 μg pcDNA3, EDG-1, EDG-3 (pC3-hE3HP2), or EDG-4 (pC3-hedg4#36). Expression plasmid and reporter plasmid DNA samples were combined and diluted in 750 μl of DMEM/F12 (serum free media) and 20 μl Plus Reagent (Lipofectamine Plus Kit, Life Technologies Cat. 109640-13), and incubated at room temperature for 15 min. • 3) 30 μl Lipofectamine Reagent (Lipofectamine Plus Kit) was diluted in 750 μl DMEM/F12. The diluted Lipofectamine was then combined with the DNA/Plus mixture and incubated at room temperature for 15 min. • 4) The 293-EBNA plates were washed once with PBS and 5 ml DMEM/F12 was added to each plate. • 5) DNA/Plus/Lipofectamine mixture was added to each plate of 293-EBNA cells. […]

[6] = system: Human Umbilical Vein Endothelial Cells (HUVEC); assay: IL-8 response in primary cultured HUVEC; assay type: cell-based; details: 5 μM, 6 hr
Experimental: Cells: HUVEC (Clonetics, Cat. CC-2519) were passaged according to supplier's instructions and used at passage 3. Cells were plated at 20,000 cells/well into 24-well plates. […] LPA induced a 3-fold IL-8 increase at this concentration. […] As shown below in FIG. 23, three cloned edge receptors respond to LPA as an agonist, and all three appear to transduce NF-κB activation in an agonist-dependent manner.

rat EDG-4 [7] = target: T4, rat EDG-4 (Rattus norvegicus, UniProt P47752); assay: NF-κB-tk-p4Luc luciferase reporter in 293-EBNA cells, rat EDG-4; assay type: cell-based; parameters: transient transfection with a eukaryotic expression vector expressing full-length rat edg-4 cDNA; expressed in transfected cells; host or cells: 293-EBNA
Text: First, the NF-κB response element was reconstructed in a new reporter construct (p4Luc) suitable for stable maintenance as an episome in primate cells. […] The p4-Luc reporter used the backbone of pREP4 (Invitrogen; Cat. V004-50), which contains the EBV orgin of replicaiton (EBVoni), as well as the EBNA-1 viral antigen required to maintain EBVoti containing plasmids as stable episoms in primate cells, and a prokayotic selection marker. A dominant eukaryotic selection marker for zeocin resistance was substituted for expression in pREP4. The promoter of pREP4 was then excised and replaced with a multi-cloning site for introduction of promoter/enhancer inserts. The NF-κB inser of the previous CAT reporter was subcloned into this site and all cloning junctions were sequenced to verify the structure of the plasmid, called NF-κB-tk-p4Luc.
• 1) 150 mm plates of 293-EBNA obtained from Invitrogen (Cat. R620-07) with a confluency of 18 80% were used for transfection. • 2) 6.6 μg NF-κB-tk-p4Luc reporter DNA and 6.6 μg of pC3-redg4 (expressing rat EDG-4), or pcDNA3 DNA was diluted in 500 μl OPTI-MEM (Gibco; Cat. 31985-062) • 3) 96.8 μl Lipofectamine (Gibco; Cat. 18324-020) was diluted in 500 μl of OPTI-MEM. • 4) The 2 solutions were mixed gently and the tube was incubated for 30 min at room temperature. • 5) The 293-EBNA plates were washed once with PBS and 13 ml OPTI-MEM was added to each plate, • 6) 6 ml OPTI-UMM was added to each transfection tube and this was added to a plate of 293EBNA cells. The plates were left for 4 hrs at 37° C. in a 5% CO2 incubator. • 7) After 4 his, the media was removed and replaced with frest 10% FBS media. Day 2: • 1) Transfected cells were washed, typsinized with 1× tryspin, resuspended in 10 ml media and counted. • 2) 0.02×10 ^6 cells were plated per well of a 96-well Blackview plate coated with polyD-lysine. No cells were plated in the outside wells of the 96-well plate. Two 96-well plates were seeded for each transfection. Day 3: • 1) Cells were washed with PBS and 140 μl serum-free media (SFM) added to each well. Plates were incubated in 37° C. incubator for 6 hrs. • 2) After 6 hrs, media was removed and cells treated with compounds diluted in 0.5% FBS media (140 μl added to each well).
Day 4 Luciferase Assay • 1) Luclite kit (Packard; Cat. 6016911) was used for luciferase assay. All reagents were brought to room temperature before use. • 2) Supernatant was transferred to a new 96-well plate and stored at −20 C. for rupture IL-8 measurement. • 3) 50 μl 0.5 M HEPES pH 7.8 buffer (1 mM MgCl21 mM CaCl2) was addeded to all wells of 96-well plate. Black adhesive backing (polyfitronics) was aligned to the bottom of the viewplate. • 4) Luclite substrate was made up by adding 10 ml substate diluent to 1 vial lyophilized substrate. Reconstituted substrate was kept under a dark container. 50 μl substrate was added to each well. • 5) A clear adhesive plate sealer was adjusted on to the viewplate and sealer rubbed over the plate with a Kimwipe. The plate was shaken on a plate shaker at 500 rpm for 5 seconds right side up and then upside down. A stop plate was placed on top of the blackview plate to keep it in the dark. • 6) Plates were incubated at room temperature for 30 min. • 7) After incubation, plates were counted in a 12 detector Packard Top Count on a program without dark delay.

human EDG-4 [8] = target: T3, human EDG-4; assay: NF-κB luciferase reporter in 293-EBNA cells, human EDG-4; assay type: cell-based; details: Assay 3; pC3-hedg4#36; 3 μM; 6 hours
Experimental: as §2

human EDG-3 [9] = assay: NF-κB luciferase reporter in 293-EBNA cells, human EDG-3; assay type: cell-based; details: for NF-κB response: original human EDG-3 clone (Assay 2)
Experimental: The above protocol for assay 1 was followed except for the following changes: • 1) 100 mm plates of 293-EBNA with a confluency of ˜80% were used for transfection. • 2) 3 μg NFκB-tk-p4Luc reporter DNA and 3 μg pC3-hedg1, pC3-hedg 3, pC3-redg4, pC3-hedg5 or pcDNA3 DNA was diluted in 240 μl OPTI-MEM (Gibco; Cat. 31985-062) • 3) 22 μl lipofectamine (Gibco; Cat. 1 8324-020) was diluted in 240 μl OPTI-MEM. • 4) The 293-EBNA plates were washed once with PBS and 7 ml OPTI-MEM was added to each plate. • 5) DNA/lipofectamine mixture was added to each plate of 293-EBNA cells. The plates were left for 4 hrs at 37° C. in a 5% CO2 incubator. Day 2: • 1) 0.01×10^6 cells were plated per well of 96-well Blackview plate coated with polyD-lysine. No cells were plated in the outside wells of the 96-well plate. Day 3: The following treatments were used for all transections:
Expression plasmid and reporter plasmid DNA samples were combined and diluted in 750 μl of DMEM/F12 (serum free media) and 20 μl Plus Reagent (Lipofectamine Plus Kit, Life Technologies Cat. 109640-13), and incubated at room temperature for 15 min. • 3) 30 μl Lipofectamine Reagent (Lipofectamine Plus Kit) was diluted in 750 μl DMEM/F12. The diluted Lipofectamine was then combined with the DNA/Plus mixture and incubated at room temperature for 15 min. • 4) The 293-EBNA plates were washed once with PBS and 5 ml DMEM/F12 was added to each plate. • 5) DNA/Plus/Lipofectamine mixture was added to each plate of 293-EBNA cells. The plates were left for 3 hr at 37° C. in a 5% CO2 incubator. • 6) The transfection medium was replaced with serum-free DMEM/F12 for cells transfected with 2XSREtk-p4Luc-zeo reporter DNA and with DMEM/F12 plus 10% FBS for cells transfected with 6XNFκBtk-p4Luc-zeo reporter DNA. • Day 2. • 2) Transfected cells were harvested by trypsinization and 50,000 cells per well were plated in 96-well Blackview plates coated with poly D-lysine Becton Dickinson Labware, Cat. 40640). […]

EDG-7 [10] = assay: NF-κB reporter, EDG-7; assay type: cell-based
pcDNA3-transfected cells = assay: Calcium microfluorimetry (fura-2), pcDNA3-transfected 293-EBNA cells; assay type: cell-based; details: 2 μM S1P
Experimental: Transfections were carried out with EDG receptors in 293-EBNA cells as described above, except that no reporter gene vector was included in the DNA mix. Two days after transfection, cells were harvested by trypsinization and plated at a density of 200,000 cells onto poly-D-lysine-coated coverslips in 100 μl of medium containing 0.5% FBS. After briefly allowing cell attachment to take place, 2 ml of medium without FBS was added and the cells were incubated overnight. The next day, cells were loaded with 5 μM fura-2 AM ester (Molecular Probes) for 60 min at RT, then washed and used for calcium microfluorimetry. […] Treatments were applied using a gravity-fed perfusion apparatus. Fluorescence emission was continuously monitored and recorded with PTI 2.060a software and analyzed with Sigma Plot software. Intracellular calcium concentrations were calculated by interpolation on a ratiometric fluorescence curve generated from fura-2 fluorescence in a calcium dilution series.

COS-1 cells = assay: IL-8 response in control COS-1 cells (empty vector pcDNA3); assay type: cell-based; details: control cells transfected with pcDNA3; 5 μm S1P
EDG-7 [11] = assay: SRE reporter, EDG-7; assay type: cell-based
rat EDG-4 [12] = target: T4, rat EDG-4; assay: IL-8 response in COS-1 cells transfected with rat EDG-4 expression plasmid; assay type: cell-based; parameters: transient transfection with a eukaryotic expression vector expressing full-length rat edg-4 cDNA; expressed in transfected cells; details: COS-1, EDG-4 expression plasmid; 5 μm S1P overnight
EDG-1 = EDG-1 (Homo sapiens, UniProt P21453); assay: NF-κB luciferase reporter in 293-EBNA cells, EDG-1; assay type: cell-based; details: Assay 3; 3 μM; 6 hours
Chain of EDG-1 (P21453 whole entry): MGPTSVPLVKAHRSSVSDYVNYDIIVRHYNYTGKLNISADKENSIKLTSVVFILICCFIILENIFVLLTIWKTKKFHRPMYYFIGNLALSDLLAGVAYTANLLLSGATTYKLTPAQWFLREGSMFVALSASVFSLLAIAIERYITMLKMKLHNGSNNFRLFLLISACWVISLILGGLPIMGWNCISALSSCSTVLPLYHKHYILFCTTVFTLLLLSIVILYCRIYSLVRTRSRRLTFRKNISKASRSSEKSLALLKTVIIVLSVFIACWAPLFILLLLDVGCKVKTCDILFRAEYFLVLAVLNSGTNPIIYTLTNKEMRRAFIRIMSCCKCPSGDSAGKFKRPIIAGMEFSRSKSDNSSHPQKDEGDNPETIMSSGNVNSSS
Experimental: as §2

T3 sequence (O95136 whole entry I205V/F273L): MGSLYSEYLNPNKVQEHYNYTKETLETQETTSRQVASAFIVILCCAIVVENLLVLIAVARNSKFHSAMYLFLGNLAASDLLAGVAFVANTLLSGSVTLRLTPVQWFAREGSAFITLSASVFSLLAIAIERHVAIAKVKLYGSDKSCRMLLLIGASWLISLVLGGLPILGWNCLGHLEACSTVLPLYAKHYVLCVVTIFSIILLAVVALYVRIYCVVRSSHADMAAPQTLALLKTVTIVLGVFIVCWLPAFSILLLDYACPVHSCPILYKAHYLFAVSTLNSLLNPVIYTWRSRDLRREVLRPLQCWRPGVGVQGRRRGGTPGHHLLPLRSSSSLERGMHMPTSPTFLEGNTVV
T4 sequence (P47752 whole entry): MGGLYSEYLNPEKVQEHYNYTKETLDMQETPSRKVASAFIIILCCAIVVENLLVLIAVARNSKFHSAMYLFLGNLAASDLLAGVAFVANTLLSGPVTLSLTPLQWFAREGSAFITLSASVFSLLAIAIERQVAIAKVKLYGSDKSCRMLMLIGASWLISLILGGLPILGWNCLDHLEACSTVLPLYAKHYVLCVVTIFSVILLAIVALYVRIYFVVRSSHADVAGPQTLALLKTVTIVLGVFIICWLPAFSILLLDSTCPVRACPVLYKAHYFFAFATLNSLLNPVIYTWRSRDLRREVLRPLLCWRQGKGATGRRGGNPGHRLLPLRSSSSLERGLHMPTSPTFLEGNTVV
T1 sequence (Q9HBW0 with tags, fused parts or gaps): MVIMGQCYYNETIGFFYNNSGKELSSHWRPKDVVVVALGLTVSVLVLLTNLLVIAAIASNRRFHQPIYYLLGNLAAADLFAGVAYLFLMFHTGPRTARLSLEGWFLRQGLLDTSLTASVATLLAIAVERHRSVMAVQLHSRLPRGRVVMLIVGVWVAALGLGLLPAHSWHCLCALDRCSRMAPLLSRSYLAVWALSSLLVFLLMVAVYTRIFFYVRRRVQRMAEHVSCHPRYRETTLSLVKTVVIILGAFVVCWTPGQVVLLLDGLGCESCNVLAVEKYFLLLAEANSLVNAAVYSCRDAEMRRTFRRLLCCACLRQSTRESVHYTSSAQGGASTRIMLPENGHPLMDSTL
Chain of human EDG-3 (Homo sapiens, UniProt Q99500) (Q99500 whole entry): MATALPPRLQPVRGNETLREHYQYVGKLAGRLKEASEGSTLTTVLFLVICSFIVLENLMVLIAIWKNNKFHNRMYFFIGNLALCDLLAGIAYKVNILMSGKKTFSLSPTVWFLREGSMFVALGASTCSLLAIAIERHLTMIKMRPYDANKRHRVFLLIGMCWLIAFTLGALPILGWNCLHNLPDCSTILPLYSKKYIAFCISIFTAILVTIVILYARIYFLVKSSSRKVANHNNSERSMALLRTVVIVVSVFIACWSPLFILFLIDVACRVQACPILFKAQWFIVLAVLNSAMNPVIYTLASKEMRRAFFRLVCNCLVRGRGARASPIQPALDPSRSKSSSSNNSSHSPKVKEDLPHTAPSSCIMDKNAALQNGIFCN
T2 sequence (Q92633 whole entry): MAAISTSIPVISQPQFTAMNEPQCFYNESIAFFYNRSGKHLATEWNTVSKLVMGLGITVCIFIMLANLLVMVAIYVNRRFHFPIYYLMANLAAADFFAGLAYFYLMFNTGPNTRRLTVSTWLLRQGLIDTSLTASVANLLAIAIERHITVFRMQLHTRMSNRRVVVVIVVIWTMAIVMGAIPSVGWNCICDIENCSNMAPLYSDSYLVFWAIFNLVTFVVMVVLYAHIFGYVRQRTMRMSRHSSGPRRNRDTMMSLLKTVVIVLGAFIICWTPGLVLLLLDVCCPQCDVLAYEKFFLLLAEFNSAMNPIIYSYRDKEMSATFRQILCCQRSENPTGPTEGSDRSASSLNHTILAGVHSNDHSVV

Row | Molecule | IL-8 production (293-EBNA cells) | IL-8 release (HL-60 cells) | agonist character at EDG-4 (human EDG-4 [4]) | Rank (EMax) (human EDG-4 [4]) | SRE reporter response (human EDG-3 [5]) | IL-8 levels, increase over untreated controls [6] | increase in luciferase activity (rat EDG-4 [7]; Assay 2, 3 μM) | induction of the NF-κB reporter gene (human EDG-4 [8]) | NF-κB response (human EDG-3 [9]) | further results
1 | lysophosphatidic acid [LPA] | no IL-8 production | no such release | – | – | – | – | – | – | – | induction of the SRE reporter (EDG-6 [1]): strongly induced; activation of the NF-κB reporter (EDG-6 [2]): 3–4 fold; endogenous AP-1 reporter response vs untreated control cells [3]: about 1.5 fold; activation of the NF-κB reporter (EDG-2): 3–4 fold
2 | CCCCCCCCCCCCC/C=C/[C@@H](O)[C@@H](N)COP(=O)([O-])OCC[N+](C)(C)C [SPC, sphingosylphosphorylcholine] | – | – | full agonists | 1 | 11 fold | Marginal increases | 4 fold | 9 fold | did not produce a NF-κB response | EMax (Percent) (human EDG-4 [4]; relative efficacy): 100%; induction of NF-κB reporter (rat EDG-4 [7]; Assay 1, 24 hrs): induced the reporter gene; induction of the NF-κB reporter gene compared to untreated controls (human EDG-3 [9]; Assay 3, pancreas EDG-3 clone, 3 μM): about 8 fold
3 | CCCCCCCCCCCCC/C=C/[C@@H](O)[C@@H](N)COP(=O)(O)O [S1P, sphingosine 1-phosphate] | no IL-8 production | no such release; also recorded: fail to produce IL-8 below the cytotoxic threshold | full agonists | 2 | 12 fold | approximately 5 fold | 3.5 fold | 4.5 fold | did not produce a NF-κB response | Emax (human EDG-4 [4]; 293-EBNA, relative efficacy, read-out: EMax (Percent)): 86.7%; NF-κB reporter response (EDG-7 [10]): fail to signal through NF-κB reporters; change in intracellular calcium (pcDNA3-transfected cells): approximately 60 nM; IL-8 response to S1P (COS-1 cells): No IL-8; SRE reporter response (EDG-7 [11]): respond through the SRE reporter; increase in luciferase activity (rat EDG-4 [7]; Assay 1, 1 μM S1P, 24 hrs): 2 fold; increase in luciferase activity (rat EDG-4 [7]; Assay 1, 5 μM or 10 μM S1P, 24 hrs): 4–4.5 fold; increase in IL-8 release compared to untreated cells (rat EDG-4 [12]): 2 fold; luciferase activity (NF-κB reporter) (EDG-1): no increase in luciferase activity
